18 compounds from US20170166598A1, “HETEROARYL COMPOUNDS FOR KINASE INHIBITION” (ARIAD PHARMACEUTICALS, INC., priority 2014, published 2017) can be followed below.

Common to all, as to type: cell-based
For test [1], the target named is T1, human EGFR exon 20 insertion ASV (V769_D770insASV) (Homo sapiens, UniProt P00533, INS769ASV).
T1 construct: expressed in transfected cells; host or cells: Ba/F3 (murine pro-B) cells transduced with lentivirus from pLVX-IRES puro
In words: Ba/F3-EGFR-Exon20-ASV cell anti-proliferative assay (CellTiter 96 MTS, 72 h). The note with it: Ba/F3-EGFR-Exon20-ASV cells. In short, it runs like this: (§1)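 Viable-cell readout used absorbance at 490 nm of MTS-derived formazan, 2 h after reagent addition, following 72 h compound treatment at 37 °C, 5% CO2. Cells: puromycin-selected, IL-3-depleted Ba/F3 expressing EGFR exon 20 ASV or NPG; dosing 4-fold series from 10,000 nM.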

For test [2], the target named is T2, human EGFR exon 20 insertion NPG (H773_V774insNPG) (Homo sapiens, UniProt P00533, INS772GNP).
T2 construct: expressed in transfected cells; host or cells: Ba/F3 (murine pro-B) cells transduced with lentivirus from pLVX-IRES puro
In words: Ba/F3-EGFR-Exon20-NPG cell anti-proliferative assay (CellTiter 96 MTS, 72 h). The note with it: Ba/F3-EGFR-Exon20-NPG cells. In short, it runs like this:
as §1

Test [3] concerns the target T3, human EGFR E746-A750 deletion and T790M Mutation (Homo sapiens, UniProt P00533, DEL746-750/T790M).
T3 construct: expressed in transfected cells; host or cells: Ba/F3 (murine pro-B) cells transduced with lentivirus from pLVX-IRES puro
In words: Ba/F3-EGFR-Del/T790M cell anti-proliferative assay (CellTiter 96 MTS, 72 h). The conditions noted are these: Ba/F3-EGFR-Del/T790M cells. In short, it runs like this:
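Compound exposure: 72 h, 37 °C, 4-fold series topping at 10,000 nM. Target cells are Ba/F3 transduced with EGFR exon 19 deletion plus T790M, selected by puromycin and IL-3 withdrawal. Viable cell number inferred from MTS metabolic conversion, A490 read 2 h after reagent addition.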

Test [4] addresses T4, Her2 exon 20 YVMA insertion (A775_G776ins YVMA) (Homo sapiens, UniProt P04626, INS775YVMA).
T4 construct: expressed in transfected cells; host or cells: Ba/F3 (murine pro-B) cells transduced with lentivirus from pLVX-IRES puro
Description: Ba/F3-Her2 Exon20 YVMA cell anti-proliferative assay (CellTiter 96 MTS, 72 h). The conditions noted are these: Ba/F3-Her2 Exon20 YVMA cells. In short, it runs like this:
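Anti-proliferation: compound series (top 10,000 nM, 4-fold steps) was applied to Ba/F3-Her2 Exon20 YVMA cells grown without IL-3 for 72 h. Viability was read colorimetrically (CellTiter 96 Aqueous One, A490, 2 h reagent incubation).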

T4 sequence (P04626 with tags, fused parts or gaps INS775YVMA): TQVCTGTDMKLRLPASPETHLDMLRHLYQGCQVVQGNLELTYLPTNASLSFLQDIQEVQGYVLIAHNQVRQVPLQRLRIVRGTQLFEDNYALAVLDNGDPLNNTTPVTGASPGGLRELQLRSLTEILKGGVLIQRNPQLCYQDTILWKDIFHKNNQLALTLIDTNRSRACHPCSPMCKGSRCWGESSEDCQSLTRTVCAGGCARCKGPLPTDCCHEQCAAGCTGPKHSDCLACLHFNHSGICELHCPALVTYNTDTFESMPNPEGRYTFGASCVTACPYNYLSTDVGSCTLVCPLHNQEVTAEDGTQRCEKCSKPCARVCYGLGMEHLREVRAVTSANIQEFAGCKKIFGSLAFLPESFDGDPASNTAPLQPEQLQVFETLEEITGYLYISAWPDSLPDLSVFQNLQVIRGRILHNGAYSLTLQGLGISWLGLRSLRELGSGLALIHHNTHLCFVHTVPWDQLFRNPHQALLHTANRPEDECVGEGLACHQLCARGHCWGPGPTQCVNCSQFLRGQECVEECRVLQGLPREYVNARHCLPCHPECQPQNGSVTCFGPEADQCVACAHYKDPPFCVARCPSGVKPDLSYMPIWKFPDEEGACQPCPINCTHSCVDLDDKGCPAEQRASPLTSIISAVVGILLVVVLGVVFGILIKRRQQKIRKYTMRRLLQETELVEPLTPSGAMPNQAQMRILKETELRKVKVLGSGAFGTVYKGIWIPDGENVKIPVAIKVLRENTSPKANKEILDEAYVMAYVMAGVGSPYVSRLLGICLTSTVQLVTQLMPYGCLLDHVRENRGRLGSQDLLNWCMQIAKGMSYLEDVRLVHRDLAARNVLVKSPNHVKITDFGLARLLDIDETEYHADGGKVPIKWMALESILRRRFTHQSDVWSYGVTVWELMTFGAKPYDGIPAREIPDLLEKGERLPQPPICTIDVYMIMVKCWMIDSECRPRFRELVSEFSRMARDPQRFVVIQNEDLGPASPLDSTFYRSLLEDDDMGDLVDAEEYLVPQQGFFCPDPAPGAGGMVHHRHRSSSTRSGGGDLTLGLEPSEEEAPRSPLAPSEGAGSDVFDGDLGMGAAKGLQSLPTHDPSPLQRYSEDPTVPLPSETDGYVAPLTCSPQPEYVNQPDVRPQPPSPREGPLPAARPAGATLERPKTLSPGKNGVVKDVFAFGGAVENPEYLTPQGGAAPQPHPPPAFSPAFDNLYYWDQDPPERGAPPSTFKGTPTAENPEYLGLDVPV
T2 sequence (P00533 with tags, fused parts or gaps INS772GNP): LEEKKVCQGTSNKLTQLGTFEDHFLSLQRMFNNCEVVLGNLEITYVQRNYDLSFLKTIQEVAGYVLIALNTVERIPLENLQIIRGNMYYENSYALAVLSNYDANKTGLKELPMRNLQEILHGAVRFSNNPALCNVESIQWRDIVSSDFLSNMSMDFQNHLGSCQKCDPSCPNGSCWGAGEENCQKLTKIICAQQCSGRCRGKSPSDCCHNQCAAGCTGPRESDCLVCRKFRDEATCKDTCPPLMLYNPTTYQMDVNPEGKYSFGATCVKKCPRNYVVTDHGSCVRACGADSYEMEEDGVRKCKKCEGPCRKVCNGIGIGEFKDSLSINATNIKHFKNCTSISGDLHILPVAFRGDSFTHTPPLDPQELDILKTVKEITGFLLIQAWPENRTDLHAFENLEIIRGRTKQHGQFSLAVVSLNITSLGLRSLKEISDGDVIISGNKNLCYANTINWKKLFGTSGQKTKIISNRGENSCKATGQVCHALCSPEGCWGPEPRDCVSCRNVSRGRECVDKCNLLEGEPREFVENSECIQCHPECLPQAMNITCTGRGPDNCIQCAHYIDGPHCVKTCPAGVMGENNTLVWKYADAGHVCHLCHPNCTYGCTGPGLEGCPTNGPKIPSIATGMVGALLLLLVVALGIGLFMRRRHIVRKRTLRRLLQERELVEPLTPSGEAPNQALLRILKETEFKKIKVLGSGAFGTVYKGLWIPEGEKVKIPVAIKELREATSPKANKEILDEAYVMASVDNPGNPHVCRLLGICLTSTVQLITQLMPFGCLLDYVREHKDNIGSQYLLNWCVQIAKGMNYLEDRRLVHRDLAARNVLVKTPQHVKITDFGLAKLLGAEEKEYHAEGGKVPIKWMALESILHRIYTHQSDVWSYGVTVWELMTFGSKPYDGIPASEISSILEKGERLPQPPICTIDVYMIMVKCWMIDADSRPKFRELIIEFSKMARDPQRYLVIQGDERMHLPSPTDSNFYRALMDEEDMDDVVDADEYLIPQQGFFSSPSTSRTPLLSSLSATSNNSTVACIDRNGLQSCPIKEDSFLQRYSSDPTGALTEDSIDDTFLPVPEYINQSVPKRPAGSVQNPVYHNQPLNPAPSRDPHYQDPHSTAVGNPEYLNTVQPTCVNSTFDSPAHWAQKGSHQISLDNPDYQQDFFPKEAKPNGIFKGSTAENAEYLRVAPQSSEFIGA
T3 sequence (P00533 with tags, fused parts or gaps DEL746-750/T790M): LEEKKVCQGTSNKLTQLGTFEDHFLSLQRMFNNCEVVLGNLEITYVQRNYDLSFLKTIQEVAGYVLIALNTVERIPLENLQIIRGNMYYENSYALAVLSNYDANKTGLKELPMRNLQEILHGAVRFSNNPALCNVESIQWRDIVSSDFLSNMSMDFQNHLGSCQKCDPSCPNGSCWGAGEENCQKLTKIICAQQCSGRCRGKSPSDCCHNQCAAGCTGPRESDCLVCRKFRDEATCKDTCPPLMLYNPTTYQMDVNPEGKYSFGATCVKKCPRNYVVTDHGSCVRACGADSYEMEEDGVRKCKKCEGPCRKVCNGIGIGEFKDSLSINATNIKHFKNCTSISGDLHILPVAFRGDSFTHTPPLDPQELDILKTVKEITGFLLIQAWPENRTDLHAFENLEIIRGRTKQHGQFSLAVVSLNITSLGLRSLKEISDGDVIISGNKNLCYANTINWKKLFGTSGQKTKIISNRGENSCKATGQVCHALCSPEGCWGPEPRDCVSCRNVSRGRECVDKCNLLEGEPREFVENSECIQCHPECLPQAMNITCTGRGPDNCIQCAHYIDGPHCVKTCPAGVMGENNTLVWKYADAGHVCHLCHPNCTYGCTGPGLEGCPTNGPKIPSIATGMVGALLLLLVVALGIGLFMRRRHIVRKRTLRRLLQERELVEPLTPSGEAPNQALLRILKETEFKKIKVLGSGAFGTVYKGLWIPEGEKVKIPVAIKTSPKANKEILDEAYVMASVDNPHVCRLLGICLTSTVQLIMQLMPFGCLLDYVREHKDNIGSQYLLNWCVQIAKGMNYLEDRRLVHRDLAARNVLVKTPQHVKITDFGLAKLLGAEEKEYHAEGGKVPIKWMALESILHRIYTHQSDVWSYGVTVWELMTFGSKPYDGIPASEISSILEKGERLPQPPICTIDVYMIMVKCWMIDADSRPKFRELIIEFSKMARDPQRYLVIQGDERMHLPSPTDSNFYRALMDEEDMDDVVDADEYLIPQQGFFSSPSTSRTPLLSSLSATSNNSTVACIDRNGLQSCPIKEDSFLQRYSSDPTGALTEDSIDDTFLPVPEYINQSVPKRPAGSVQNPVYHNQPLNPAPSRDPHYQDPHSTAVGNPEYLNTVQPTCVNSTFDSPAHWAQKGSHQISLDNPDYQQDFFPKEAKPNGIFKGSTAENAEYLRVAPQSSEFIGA
T1 sequence (P00533 with tags, fused parts or gaps INS769ASV): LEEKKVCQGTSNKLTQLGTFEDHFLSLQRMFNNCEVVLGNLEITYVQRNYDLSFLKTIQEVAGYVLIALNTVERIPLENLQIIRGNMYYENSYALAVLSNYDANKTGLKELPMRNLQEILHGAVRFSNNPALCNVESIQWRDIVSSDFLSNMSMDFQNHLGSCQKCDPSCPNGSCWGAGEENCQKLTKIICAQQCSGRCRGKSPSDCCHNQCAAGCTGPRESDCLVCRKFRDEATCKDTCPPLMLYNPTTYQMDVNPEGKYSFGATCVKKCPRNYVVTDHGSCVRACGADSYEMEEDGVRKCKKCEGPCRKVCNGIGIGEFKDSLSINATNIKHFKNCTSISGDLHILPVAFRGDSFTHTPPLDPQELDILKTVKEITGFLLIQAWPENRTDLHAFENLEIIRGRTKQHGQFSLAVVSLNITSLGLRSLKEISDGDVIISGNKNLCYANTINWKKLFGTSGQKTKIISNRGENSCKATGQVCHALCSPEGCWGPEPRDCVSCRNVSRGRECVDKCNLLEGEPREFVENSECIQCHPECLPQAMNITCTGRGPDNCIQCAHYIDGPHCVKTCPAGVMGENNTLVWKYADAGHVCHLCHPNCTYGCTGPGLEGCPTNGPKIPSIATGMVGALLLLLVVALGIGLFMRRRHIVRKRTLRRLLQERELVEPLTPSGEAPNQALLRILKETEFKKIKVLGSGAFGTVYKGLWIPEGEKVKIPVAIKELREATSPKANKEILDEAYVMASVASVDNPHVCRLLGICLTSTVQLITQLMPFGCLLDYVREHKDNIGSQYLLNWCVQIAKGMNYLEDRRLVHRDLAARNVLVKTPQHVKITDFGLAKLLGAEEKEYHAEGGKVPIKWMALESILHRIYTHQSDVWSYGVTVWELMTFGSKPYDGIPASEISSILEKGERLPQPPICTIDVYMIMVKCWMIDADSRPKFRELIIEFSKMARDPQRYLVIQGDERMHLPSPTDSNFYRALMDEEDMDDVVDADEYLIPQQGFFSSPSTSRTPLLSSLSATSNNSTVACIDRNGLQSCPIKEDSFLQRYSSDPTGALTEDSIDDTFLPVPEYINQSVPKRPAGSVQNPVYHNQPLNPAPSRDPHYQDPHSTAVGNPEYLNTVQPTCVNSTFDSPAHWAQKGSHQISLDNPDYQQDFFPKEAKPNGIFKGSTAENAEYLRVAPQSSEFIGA

With `C=CC(=O)Nc1cc(Nc2ncc(OCC(C)O)c(-c3cn4c5c(cccc35)CCC4)n2)c(OC)cc1N(C)CCN(C)C` (stereo not drawn) [Example 51, N-(5-((4-(5,6-dihydro-4H-pyrrolo[3,2,1-ij]quinolin-1-yl)-5-(2-hydroxypropoxy)pyrimidin-2-yl)amino)-2-((2-(dimethylamino)ethyl)(methyl)amino)-4-methoxyphenyl)acrylamide], the IC50 in test [1] was below 100 nM; in test [2] it was below 100 nM; in test [4] it was 100 to 500 nM. Further, in test [3], the “EGFR exon 19 deletion and exon 20 T790M mutation IC50” value is “A (IC50 value for the indicated mutant below about 100 nM)”.
With `C=CC(=O)Nc1cc(Nc2ncc(N(C)CCO)c(-c3cn4c5c(cccc35)CCC4)n2)c(OC)cc1N(C)CCN(C)C` [Example 60, N-(5-((4-(5,6-dihydro-4H-pyrrolo[3,2,1-ij]quinolin-1-yl)-5-((2-hydroxyethyl)(methyl)amino)pyrimidin-2-yl)amino)-2-((2-(dimethylamino)ethyl)-(methyl)amino)-4-methoxyphenyl)acrylamide], the 50% inhibitory concentration (IC50) is below 100 nM in test [1], below 100 nM in test [2] and 100 to 500 nM in test [4]. Also, in test [3], the “EGFR exon 19 deletion and exon 20 T790M mutation IC50” value was “A (IC50 value for the indicated mutant below about 100 nM)”.
For `C=CC(=O)Nc1cc(Nc2ncc(C(=O)NC)c(-c3cn4c5c(cccc35)CCC4)n2)c(OC)cc1N(C)CCN(C)C` [Example 54, 2-((5-acrylamido-4-((2-(dimethylamino)ethyl)(methyl)amino)-2-methoxyphenyl)amino)-4-(5,6-dihydro-4H-pyrrolo[3,2,1-ij]quinolin-1-yl)-N-methylpyrimidine-5-carboxamide], the results for the IC50 in test [1], in test [2] and in test [4] were 100 to 500 nM, below 100 nM and 100 to 500 nM, respectively. The “EGFR exon 19 deletion and exon 20 T790M mutation IC50” value in test [3] is given as “A (IC50 value for the indicated mutant below about 100 nM)”.
Regarding `C=CC(=O)Nc1cc(Nc2ncc(CCC#N)c(-c3cn4c5c(cccc35)CCC4)n2)c(OC)cc1N(C)CCN(C)C` [Example 41, N-(5-((5-(2-cyanoethyl)-4-(5,6-dihydro-4H-pyrrolo[3,2,1-ij]quinolin-1-ul)pyrimidin-2-yl)amino)-2-((2-(dimethylamino)ethyl)(methyl)amino)-4-methoxyphenyl)acrylamide], the IC50 in test [1], in test [2] and in test [4] was below 100 nM each time. In addition, the “EGFR exon 19 deletion and exon 20 T790M mutation IC50” value in test [3] is “A (IC50 value for the indicated mutant below about 100 nM)”.
Turning to `C=CC(=O)Nc1cc(Nc2nccc(-c3c(-c4ncccn4)n4c5c(cccc35)CCC4)n2)c(OC)cc1N(C)CCN(C)C` [Example 109], the values for the IC50 in test [1], in test [2] and in test [4] were above 1000 nM, 100 to 500 nM and above 1000 nM, respectively. The “EGFR exon 19 deletion and exon 20 T790M mutation IC50” value in test [3] is on record as “B (IC50 value for the indicated mutant between about 100 to about 500 nM)”.
With `C=CC(=O)Nc1cc(Nc2ncc(CCC(=O)OC)c(-c3cn4c5c(cccc35)CCC4)n2)c(OC)cc1N(C)CCN(C)C` [Example 39, methyl 3-(2-((5-acrylamido-4-((2-(dimethylamino)ethyl)(methyl)amino)-2-methoxyphenyl)amino)-4-(5,6-dihydro-4H-pyrrolo[3,2,1-ij]quinolin-1-yl)pyrimidin-5-yl)propanoate], the IC50 in test [1] is 100 to 500 nM; in test [2], below 100 nM; in test [4], 100 to 500 nM. In addition, the “EGFR exon 19 deletion and exon 20 T790M mutation IC50” value in test [3] is recorded as “A (IC50 value for the indicated mutant below about 100 nM)”.
As for `C=CC(=O)Nc1cc(Nc2ncc(C#N)c(-c3cn4c5c(cccc35)CCC4)n2)c(OC)cc1N1CC[C@@H](N(C)C)C1` [Example 15, (R)-N-(5-((5-cyano-4-(5,6-dihydro-4H-pyrrolo[3,2,1-ij]quinolin-1-yl)pyrimidin-2-yl)amino)-2-(3-(dimethylamino)pyrrolidin-1-yl)-4-methoxyphenyl)acrylamide], the IC50 in test [1] is below 100 nM; in test [2], below 100 nM; in test [4], 100 to 500 nM. Further, the “EGFR exon 19 deletion and exon 20 T790M mutation IC50” value in test [3] was “A (IC50 value for the indicated mutant below about 100 nM)”.
Take `C=CC(=O)Nc1cc(Nc2ncc(/C=C\C#N)c(-c3cn4c5c(cccc35)CCC4)n2)c(OC)cc1N(C)CCN(C)C` [Example 43, (Z)-N-(5-((5-(2-cyanovinyl)-4-(5,6-dihydro-4H-pyrrolo[3,2,1-ij]quinolin-1-yl)pyrimidin-2-yl)amino)-2-((2-(dimethylamino)ethyl)(methyl)amino)-4-methoxyphenyl)acrylamide]: the IC50 in test [1], in test [2] and in test [4] was below 100 nM throughout. The “EGFR exon 19 deletion and exon 20 T790M mutation IC50” value in test [3] is listed as “A (IC50 value for the indicated mutant below about 100 nM)”.
For the compound `C=CC(=O)Nc1cc(Nc2ncc(C(=O)OC)c(-c3nn4c5c(cccc35)OCC4)n2)c(OC)cc1N(C)CCN(C)C` [Example 65, Methyl 2-((5-acrylamido-4-((2-(dimethylamino)ethyl)(methyl)amino)-2-methoxyphenyl)amino)-4-(2,3-dihydro-[1,4]oxazino[2,3,4-hi]indazol-6-yl)pyrimidine-5-carboxylate], the IC50 in test [1], in test [2] and in test [4] was below 100 nM in each case. The “EGFR exon 19 deletion and exon 20 T790M mutation IC50” value in test [3] is recorded as “A (IC50 value for the indicated mutant below about 100 nM)”.
On to `C=CC(=O)Nc1cc(Nc2ncc(OCC(F)F)c(-c3cn4c5c(cccc35)CCC4)n2)c(OC)cc1N(C)CCN(C)C` [Example 95], for which the figures for the IC50 in test [1], in test [2] and in test [4] were below 100 nM, below 100 nM and 100 to 500 nM, respectively. In addition, the “EGFR exon 19 deletion and exon 20 T790M mutation IC50” value in test [3] was “A (IC50 value for the indicated mutant below about 100 nM)”.
As to `C=CC(=O)Nc1cc(Nc2nccc(-c3c(N4CCN(C)C(=O)C4)n4c5c(cccc35)CCC4)n2)c(OC)cc1N(C)CCN(C)C` [Example 94], the results for the IC50 in test [1], in test [2] and in test [4] were 100 to 500 nM, 100 to 500 nM and above 1000 nM, respectively. For the same compound, in test [3], the “EGFR exon 19 deletion and exon 20 T790M mutation IC50” value was “C (IC50 value for the indicated mutant between greater than about 500 to about 1 μM)”.
For `C=CC(=O)Nc1cc(Nc2ncc(-c3cc(C)nn3C)c(-c3cn4c5c(cccc35)CCC4)n2)c(OC)cc1N(C)CCN(C)C` [Example 101], the IC50 in test [1], in test [2] and in test [4] was below 100 nM each time. Besides, in test [3], the “EGFR exon 19 deletion and exon 20 T790M mutation IC50” value is listed as “A (IC50 value for the indicated mutant below about 100 nM)”.
For the compound `C=CC(=O)Nc1cc(Nc2ncc(N3CCCC3)c(-c3cn4c5c(cccc35)CCC4)n2)c(OC)cc1N(C)CCN(C)C` [Example 106], the IC50 in test [1] lay within 100 to 500 nM; in test [2] it was 100 to 500 nM; in test [4], 500 to 1000 nM. The “EGFR exon 19 deletion and exon 20 T790M mutation IC50” value in test [3] is “A (IC50 value for the indicated mutant below about 100 nM)”.
As for `C=CC(=O)Nc1cc(Nc2ncc(-c3nccn3C)c(-c3cn4c5c(cccc35)CCC4)n2)c(OC)cc1N(C)CCN(C)C` [Example 98], the IC50 in test [1] is below 100 nM; in test [2], below 100 nM; in test [4] it was 100 to 500 nM. For the same compound, the “EGFR exon 19 deletion and exon 20 T790M mutation IC50” value in test [3] is “A (IC50 value for the indicated mutant below about 100 nM)”.
Consider `C=CC(=O)Nc1cc(Nc2ncc(CCC(C)O)c(-c3cn4c5c(cccc35)CCC4)n2)c(OC)cc1N(C)CCN(C)C` (stereo not drawn) [Example 32, N-(5-((4-(5,6-dihydro-4H-pyrrolo[3,2,1-ij]quinolin-1-yl)-5-(3-hydroxybutyl)pyrimidin-2-yl)amino)-2-((2-(dimethylamino)ethyl)(methyl)amino)-4-methoxyphenyl)acrylamide], for which the IC50 in test [1] is below 100 nM; in test [2], below 100 nM; in test [4] it was 100 to 500 nM. Further, the “EGFR exon 19 deletion and exon 20 T790M mutation IC50” value in test [3] was “A (IC50 value for the indicated mutant below about 100 nM)”.
Take `C=CC(=O)Nc1cc(Nc2ncc(-c3cn(C)nc3C)c(-c3cn4c5c(cccc35)CCC4)n2)c(OC)cc1N(C)CCN(C)C` [Example 100]: the IC50 in test [1], in test [2] and in test [4] was below 100 nM throughout. Further, the “EGFR exon 19 deletion and exon 20 T790M mutation IC50” value in test [3] is on record as “A (IC50 value for the indicated mutant below about 100 nM)”.
As for `C=CC(=O)Nc1cc(Nc2ncc(C(=O)OC)c(-c3cn4c5c(cccc35)CCC4)n2)c(OC)cc1N(C)CC1CCCN1C` (stereo not drawn) [Example 89], the IC50 in test [1], in test [2] and in test [4] was below 100 nM in each case. In addition, the “EGFR exon 19 deletion and exon 20 T790M mutation IC50” value in test [3] is “A (IC50 value for the indicated mutant below about 100 nM)”.
Regarding `C=CC(=O)Nc1cc(Nc2ncc(C#N)c(-c3cn4c5c(cccc35)CCC4)n2)c(OC)cc1N1CC[C@H](N(C)C)C1` [Example 16, (S)-N-(5-((5-cyano-4-(5,6-dihydro-4H-pyrrolo[3,2,1-ij]quinolin-1-yl)pyrimidin-2-yl)amino)-2-(3-(dimethylamino)pyrrolidin-1-yl)-4-methoxyphenyl)acrylamide], the IC50 in test [1] was below 100 nM; in test [2], below 100 nM; in test [4] it was 100 to 500 nM. In addition, the “EGFR exon 19 deletion and exon 20 T790M mutation IC50” value in test [3] was “A (IC50 value for the indicated mutant below about 100 nM)”.
